Reference: patent US20070155803A1, “Protease inhibitors” (ProZymex A/S, priority 2003, published 2007)
Square brackets hold non-standard residues; d marks the D form. Peptide text beside a SMILES is read from it. Phe(3-F) = N[C@@H](Cc1cccc(F)c1)C(=O)O; hPhe = N[C@@H](CCc1ccccc1)C(=O)O; Abu = CC[C@H](N)C(=O)O; azaGly = NNC(=O)O

Legend:
[1] = target: T1, Human neutrophil elastase (Homo sapiens, UniProt P08246); test: Human neutrophil elastase assay; assay type: biochemical
T1 construct: purchased Calbiochem 324681
T1 sequence (P08246 30-267): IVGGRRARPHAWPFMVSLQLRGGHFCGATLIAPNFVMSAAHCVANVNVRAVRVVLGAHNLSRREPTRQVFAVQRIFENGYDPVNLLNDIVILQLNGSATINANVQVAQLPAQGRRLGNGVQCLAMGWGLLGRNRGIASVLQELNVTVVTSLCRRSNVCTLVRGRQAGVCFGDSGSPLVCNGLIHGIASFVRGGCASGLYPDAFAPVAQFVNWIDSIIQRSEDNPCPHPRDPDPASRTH
Procedure: Human Neutrophil Elastase Assay
Using this assay, the selectivity of a compound of the invention for hDPP-I over human neutrophil elastase was determined, using a fluorogenic substrate.
Buffer containing 100 mM Tris/HCl pH 7.5 (25° C.), and 500 mM NaCl.
Human neutrophil elastase (Calbiochem Cat # 324681, 50 ng/µL stock) was reconstituted in 50 mM sodium acetate pH 5.5 and 200 mM NaCl, then stored at −20° C. Diluted to 1 ng/μL in buffer just prior to experiment.
MeOSuc-Ala-Ala-Pro-Val-AMC (Calbiochem Cat # 324740) was dissolved in buffer to 4 mM (398 μL/mg) just prior to experiment. Km was determined to be 560 μM.
The assay was performed in 96-well plates. 80 μL assay buffer was added to the well followed by 10 μL enzyme (1 ng/μL). Incubated for 10 min. at 37° C., then 10 μL substrate was added, and subsequently a compound of the invention (10 μM in the assay) The excitation wavelength was 380 nm, and the emission was measured at 460 nm for 10-20 minutes at 37° C. Each measurement was made in duplicate. In the software (SOFTmax Pro) used for data,collection from the fluorometer (Molecular Devices: Gemini XS), it was ensured that the measured slopes were linear (R^2>0.99). Data was exported to GraphPad Prism and nonlinear regression was performed using the option sigmoidal dose-response (variable slope).

[2] = target: T2, CYP1A2 (Homo sapiens, UniProt P05177); test: Human CYP1A2 assay (Vivid CYP1A2 Blue Screening Kit); assay type: in vitro ADME; conditions: 20 μM cutoff; read-out: Metabolism: CYP enzymes (20 μM cutoff or IC50) CYP1A2
T2 construct: purchased PanVera Vivid CYP1A2 Blue Screening Kit; host or cells: insect cells infected with baculovirus (microsomes)
T2 sequence (P05177 2-516 limits assumed): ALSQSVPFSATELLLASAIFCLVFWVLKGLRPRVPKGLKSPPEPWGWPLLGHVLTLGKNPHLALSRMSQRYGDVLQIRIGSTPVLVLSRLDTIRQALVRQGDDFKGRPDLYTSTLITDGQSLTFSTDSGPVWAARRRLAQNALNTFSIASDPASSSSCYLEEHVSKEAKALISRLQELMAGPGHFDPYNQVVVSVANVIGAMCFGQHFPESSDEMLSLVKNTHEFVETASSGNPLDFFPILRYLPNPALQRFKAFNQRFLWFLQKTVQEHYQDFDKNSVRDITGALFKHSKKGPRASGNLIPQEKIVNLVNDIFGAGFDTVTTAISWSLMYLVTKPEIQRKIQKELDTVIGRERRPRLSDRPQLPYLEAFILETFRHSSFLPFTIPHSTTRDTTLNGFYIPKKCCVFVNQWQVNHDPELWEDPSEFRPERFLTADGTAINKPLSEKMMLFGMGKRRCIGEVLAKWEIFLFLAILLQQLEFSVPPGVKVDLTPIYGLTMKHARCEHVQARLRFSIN
Procedure: This assay was used to determine the effect of a compound of the invention on the CYP1A2 liver metabolizing enzyme.
Vivid® CYP1A2 Blue Screening Kit from PanVera was used.
Vivid®CYP450 Reaction Buffer I: 200 mM potassium phosphate buffer, pH 8.
CYP1A2 baculosoniese® reagent: CYP1A2 and […] (P450-specific content: 1.1 μM). Microsomes prepared from insect cells that were infected with baculovirus containing the cDNA for human CYP1A2 and rabbit cytochrome P450 reductase.
Regenerating System: 333 mM glucose-6-phosphate and 40 U/mL glucose-6-phosphate dehydrogenase in 100 mM potassium phosphate buffer, pH 8.
Vivid® CYP1A2 Blue Substrate.
Vivid® Blue Standard: 3-cyano-7-hydroxycoumarin.
10 mM NADP^+ in 100 mM potassium phosphate buffer, pH 8.
(§1) Tubes thawed on ice. 2× reaction buffer dispensed (room temperature) in two eppendorf tubes (for Mix A and Mix B).
(§2) Controls or compounds of the invention: Diluted to a concentration of 50 μM. Positive control compound: α-naphthoflavone.
(§3) Negative controls: DMSO and H2O.
Mix A: 485 μL reaction buffer, 10 μL regeneration system, 5 μL Baculosome reagent. Mixed gently and placed on ice. […]
In a 96-well plate (Costar c-3904), 40 μL of 50 μM sample dispensed. […] Fluorescence determined (Molecular Devices, SPECTRAmax Gemini EM): Ex: 409 nm, Em: 460 nm, at 37° C. for 20 min. (Automix: 5 s, top read.).

[3] = Metabolic stability in rat liver microsomes; assay type: in vitro ADME; conditions: pH 7.4; rat liver microsomes 0.3 mg/mL, test compound 1 μM, 37° C.; read-out: Metabolic stability (t1/2 in min.) Rat liver microsomes
Procedure: Assay for Determination of Metabolic Stability is Rat Liver Microsomes
The assay was performed at Cerep (Seattle) according to the protocol described by Kuhnz et. al. (Kuhnz, W., Gieschen, H. Drug Metab. Dispos., 26, 1120-1127), using rat liver microsomes (0.3 mg/mL), test compound (1 μM), NADP (1 mM), and G6P (5 mM), and G6PDHase (1 U/mL) with 0.6% methanol/0.6% acetonitrile in water. Incubation was performed at 37° C. in phosphate buffer (50 mM, pH=7.4), and the samples were analyzed for remaining product ion (selected reaction monitoring)by HPLC-MS/MS (Thermo Finnigan) at 0, 15, 30, 45 and 60 min. intervals.

[4] = target: T3, CYP3A4 (Homo sapiens, UniProt P08684); test: CYP3A4 assay (Vivid CYP3A4 Red Screening Kit); assay type: in vitro ADME; conditions: read-out: Metabolism: CYP enzymes (20 μM cutoff or IC50) CYP3A4
T3 construct: purchased PanVera Vivid CYP3A4 Red Screening Kit
T3 sequence (P08684 whole entry): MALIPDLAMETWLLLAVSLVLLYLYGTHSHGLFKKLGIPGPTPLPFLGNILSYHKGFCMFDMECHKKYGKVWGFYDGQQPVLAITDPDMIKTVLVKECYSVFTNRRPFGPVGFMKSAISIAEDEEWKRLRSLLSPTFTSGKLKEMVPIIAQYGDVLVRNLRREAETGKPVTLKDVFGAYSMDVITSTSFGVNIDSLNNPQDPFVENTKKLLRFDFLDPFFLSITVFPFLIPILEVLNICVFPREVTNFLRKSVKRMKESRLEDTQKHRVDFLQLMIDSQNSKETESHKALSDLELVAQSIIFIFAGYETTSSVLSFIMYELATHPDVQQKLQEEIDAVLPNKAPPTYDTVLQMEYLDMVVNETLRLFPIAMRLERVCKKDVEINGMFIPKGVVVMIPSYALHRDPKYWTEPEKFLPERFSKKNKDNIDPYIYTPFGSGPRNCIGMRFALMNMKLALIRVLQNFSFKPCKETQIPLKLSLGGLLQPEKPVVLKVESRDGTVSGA
Procedure: as §1, §2, §3
Mix A: 485 μL reaction buffer, 10 μL regeneration system, 5 μL Baculosome reagent. Mixed gently and placed on ice.
Mix B: 88.5 μL reaction buffer, 1.5 μL substrate, 10 μL 10 mM NADP^+.
In a 96-well plate (Costar c-3904), 40 μL of 50 μM sample dispensed. 50 μl Mix A added. Incubated 20 min. at rt. Then, 10 μl of Mix B added. Fluorescence determined (Molecular Devices, SPECTRAmax Gemini EM): Ex: 409 nm, Em: 460 nm, at 37° C. for 20 min. (Automix: 5 s, top read.).
Following the procedure for CYP1A2, using the appropriate kits below, the effect of a compound of the invention on the other CYP enzymes was determined:
Vivid® CYP3A4 Red Screening Kit from PanVera.

For `CC[C@H](N)C(=O)NNC(=O)N[C@@H](CCc1ccccc1)C(=O)N[C@@H](Cc1cccc(F)c1)C(N)=O` [Example 11, 1-(2S-2-Aminobutanoyl)-4-[2S-N-[2S-3-(m-fluorophenyl)propan-2-yl-amide]-4-phenylbutan-2-yl-amide]semicarbazide] (H-[Abu][azaGly][hPhe][Phe(3-F)]-NH2), the “Inhibition of neutrophil elastase (in words)” value [1] was “does not inhibit”, the IC50 ([1]; human neutrophil elastase, 10 μM cutoff, read-out: Secondary enzymatic screening (10 μM cutoff or IC50) Neutrophil elastase) was over 10 µM and the IC50 [2] was over 20 µM. The half-life at 1 μM [3] was 23 min and the IC50 [4] was 0.6 µM.
